# Like-named read-outs stand apart in the source and are kept apart here.
# System: HBV DNA in HepG2.2.15 cells
# Assay: HBV in vitro dot-blot hybridization test
# Assay type: cell-based, Hepatitis B virus
# Conditions: Hepatitis B virus
# Description: • 1. Purpose of the test: • The content of HBV DNA in HepG2.2.15 cells was detected by dot-blot hybridization test to evaluate an inhibitory action of the compound on HBV with an EC50 value as an indicator. • 2. Experimental materials: • 2.1 Cell lines: HepG2.2.15 Cells • HepG2.2.15 cell culture media (DMEM/F12, Invitrogen-11330057; 10% serum Invitrogen-10099141; 100 units/mL Penicillin and 10 μg/mL Streptomycin, Invitrogen-15140122; 1% non-essential amino acid, Invitrogen-11140076; 2 mM L-GLUTAMINE, Invitrogen-25030081; 300 µg/ml Geneticin, Invitrogen-10131027 • 2.2 Reagents: • Trypsin (I Invitrogen-25300062) • DPBS (Hyclone-SH30028.01B) • DMSO (Sigma-D2650-100ML) • 96-well cell-culture plate (Corning-3599) • CO2 incubator (HERA-CELL-240) • 20×SSC (Bio-serve Co. Ltd) • Tris-HCl (Aldirch-154563-1KG) • NaOH (Sinopharm 10019718) • NaCl (Sinopharm 10019308) • Hybridization solution (Major BioTech Co. Ltd, IMMUNE GOLD-HYB-500) • DIG Wash and Block Buffer set (Roche-11585762001) • Anti-digoxigenin-AP, Fab fragments from sheep (Roche-11093274910) • 2.3 Materials and Instruments: • Positively-Charged Nylon Membrane (GE-RPN2250B) • Transfer Membrane Instrument (Bio-Rad, 170-6545) • Hybridization Oven (HL-2000 Hybrilinker) • 3. Testing steps and Methods: • 3.1 HepG2.2.15 cells (4×10^4 cells/well) were planted into a 96-well plate, and at 37° C., 5% CO2 cultured overnight. • 3.2 On Day 2, the compounds were diluted in totally 6 concentrations with a dilution gradient of five times. The compounds at different concentrations were added into the culture wells in duplicate. The final concentration of DMSO in the culture media was 1%. 1 μM GLS4 was used as 100% inhibition control; 1% DMSO as 0% inhibition control. • 3.3 On Day 5, replacing with the fresh culture media containing the compound was performed. • 3.4 On Day 8 and Day 9, the culture media in the culture wells was removed, and the cells were harvested for dot-blot hybridization. • The lysate was added into a culture well, and at 37° C. incubating for half an hour to disintegrate cells; the supernatant was obtained by centrifugation and transferred into a new microplate; a denaturation solution was added, after sufficient mixing the denatured sample was transferred and imprinted onto a Nylon membrane, the nucleic acid was fixed onto the membrane by UV cross-linking. • Pre-hybridization: the membrane was incubated at 60° C. in a hybridization solution for 1 hour. • Hybridization: heating the denatured digoxin-labelled HBV DNA probe and incubating at 60° C. overnight. • Membrane Washing: performing high strigency washing twice, low strigency washing for 3 times. • Blocking: incubating the membrane at room temperature in a blocking solution for 30-60 minutes. • Hybridization: diluting the Antibody Solution with the blocking solution, in which the membrane was placed and incubated at room temperature for 30-60 minutes. • Developing: washing the membrane in a Detection Buffer for 5 minutes, followed by adding a developing solution, pressing and exposing. • The photos was saved in tiff format, and a gray value of the dot was quantified with quantity one software. • 3.5 Data Analysis: • 3.5.1 The inhibition percentage was calculated: % Inh.=[1−(sample dot gray value−1 μM GLS4 dot gray value 1)/(DMSO control dot gray value−1 μM GLS4 dot gray value 1)]×100. • 3.5.2 Calculating EC50: the concentration of the compound for 50% inhibition of HBV (EC50) was calculated by using GraphPad Prism Software. • 4.
# [1] = HepG2.2.15, dot-blot hybridization assay, read-out: Concentration for 50% inhibition of HBV (EC50)value
# [2] = HepG2.2.15, summary list of target compounds, Examples 1-165 (same as Table 2), read-out: BIOACTIVITY (inhibitory actions on HBV DNA, EC50)
Structure (SMILES),EC50 [1] [µM],EC50 [2] [µM]
CCOC(=O)C1=C2CN(C)C(=O)CN2C(c2nccs2)=NC1c1ccc(F)cc1Br (racemic) [Example 105],0.5 to 1,0.5 to 1
CCOC(=O)C1=C2CCOC(=O)N2C(c2nccs2)=NC1c1ccc(F)cc1Br (racemic) [Example 107],0.1 to 0.5,0.1 to 0.5
CCOC(=O)C1=C2CCCC(=O)N2C(c2nccs2)=N[C@H]1c1ccc(F)cc1Br (racemic) [Example 108],1 to 5,1 to 5
CCOC(=O)C1=C2CCCCN2C(c2nccs2)=NC1c1ccc(F)cc1Cl (racemic) [Example 109],1 to 5,1 to 5
CCOC(=O)C1=C2COCCN2C(c2nccs2)=NC1c1ccc(F)cc1Br (racemic) [Example 110],1 to 5,1 to 5
CCOC(=O)C1=C2CCOC(=O)N2C(c2nccs2)=NC1c1ccc(F)cc1Cl (racemic) [Example 111],1 to 5,1 to 5
CCOC(=O)C1=C2CCN2C(c2nccs2)=NC1c1ccc(F)cc1Br (racemic) [Example 112],1 to 5,1 to 5
CCOC(=O)C1=C2CCCN2C(c2nccs2)=N[C@H]1c1ccc(F)cc1Br [Example 5],0.1 to 0.5,0.1 to 0.5
CCOC(=O)C1=C2C[C@@H](CO)CN2C(c2nccs2)=N[C@H]1c1ccc(F)cc1Br [Example 6],< 0.1,< 0.1
CCOC(=O)C1=C2C[C@H](CO)CN2C(c2nccs2)=N[C@H]1c1ccc(F)cc1Br [Example 7],0.1 to 0.5,0.1 to 0.5
CCOC(=O)C1=C2C[C@@H](CC(=O)O)CN2C(c2nccs2)=N[C@H]1c1ccc(F)cc1Br [Example 13],0.1 to 0.5,0.1 to 0.5
CCOC(=O)C1=C2C[C@H](CC(=O)O)CN2C(c2nccs2)=N[C@H]1c1ccc(F)cc1Br [Example 14],0.5 to 1,0.5 to 1
CCOC(=O)C1=C2C[C@H](CN3CCOCC3)CN2C(c2nccs2)=N[C@H]1c1ccc(F)cc1Br [Example 15],0.1 to 0.5,0.1 to 0.5
CCOC(=O)C1=C2C[C@@H](CN3CCOCC3)CN2C(c2nccs2)=N[C@H]1c1ccc(F)cc1Br [Example 16],1 to 5,1 to 5
CCOC(=O)CN(C)C[C@@H]1CC2=C(C(=O)OCC)[C@H](c3ccc(F)cc3Br)N=C(c3nccs3)N2C1 [Example 19],1 to 5,1 to 5
CCOC(=O)CN(C)C[C@H]1CC2=C(C(=O)OCC)[C@H](c3ccc(F)cc3Br)N=C(c3nccs3)N2C1 [Example 20],1 to 5,1 to 5
CCOC(=O)C1=C2C[C@@H](CN3CCC[C@H]3C(=O)OC)CN2C(c2nccs2)=N[C@H]1c1ccc(F)cc1Br [Example 21],1 to 5,1 to 5
CCOC(=O)C1=C2C[C@H](CN3CCC[C@H]3C(=O)OC)CN2C(c2nccs2)=N[C@H]1c1ccc(F)cc1Br [Example 22],1 to 5,1 to 5
CCOC(=O)C1=C2C[C@H](C#N)CN2C(c2nccs2)=N[C@H]1c1ccc(F)cc1Cl [Example 24],0.5 to 1,0.5 to 1
CCOC(=O)C1=C2C[C@@H](C#N)CN2C(c2nccs2)=N[C@H]1c1ccc(F)cc1Cl [Example 25],1 to 5,1 to 5
CCOC(=O)C1=C2C[C@@H](C(N)=O)CN2C(c2nccs2)=N[C@H]1c1ccc(F)cc1Cl [Example 30],0.1 to 0.5,0.1 to 0.5
CCOC(=O)C1=C2C[C@H](C(N)=O)CN2C(c2nccs2)=N[C@H]1c1ccc(F)cc1Cl [Example 31],0.1 to 0.5,0.1 to 0.5
CCOC(=O)C1=C2C[C@H](c3nnn[nH]3)CN2C(c2nccs2)=N[C@H]1c1ccc(F)cc1Cl [Example 32],1 to 5,1 to 5

Structure (SMILES),EC50 [1] [µM],EC50 [2] [µM]
CCOC(=O)C1=C2C[C@@H](c3nnn[nH]3)CN2C(c2nccs2)=N[C@H]1c1ccc(F)cc1Br [Example 33],1 to 5,1 to 5
CCOC(=O)C1=C2C[C@H](O)CN2C(c2nccs2)=N[C@H]1c1ccc(F)cc1Cl [Example 34],0.1 to 0.5,0.1 to 0.5
CCOC(=O)C1=C2C[C@H](O)CN2C(c2nccs2)=N[C@@H]1c1ccc(F)cc1Cl [Example 35],1 to 5,1 to 5
CCOC(=O)C1=C2C[C@H](N(C)C)CN2C(c2nccs2)=N[C@H]1c1ccc(F)cc1Br [Example 36],0.5 to 1,0.5 to 1
CCOC(=O)C1=C2C[C@@H](N(C)C)CN2C(c2nccs2)=N[C@H]1c1ccc(F)cc1Br [Example 37],1 to 5,1 to 5
CCOC(=O)C1=C2C[C@H](NC(=O)OC(C)(C)C)CN2C(c2nccs2)=N[C@H]1c1ccc(F)cc1Br [Example 38],< 0.1,< 0.1
CCOC(=O)C1=C2C[C@@H](NC(=O)OC(C)(C)C)CN2C(c2nccs2)=N[C@H]1c1ccc(F)cc1Br [Example 39],< 0.1,< 0.1
CCOC(=O)C1=C2C[C@@H](N)CN2C(c2nccs2)=N[C@H]1c1ccc(F)cc1Br [Example 40],1 to 5,1 to 5
CCOC(=O)C1=C2C[C@H](N)CN2C(c2nccs2)=N[C@H]1c1ccc(F)cc1Br [Example 41],1 to 5,1 to 5
CCOC(=O)C1=C2C[C@@H](NC(=O)OC)CN2C(c2nccs2)=N[C@H]1c1ccc(F)cc1Br [Example 43],0.1 to 0.5,0.1 to 0.5
CCOC(=O)C1=C2C[C@H](NC(=O)OC)CN2C(c2nccs2)=N[C@H]1c1ccc(F)cc1Br [Example 44],< 0.1,< 0.1
CCOC(=O)C1=C2CC(NC(=O)OC(C)C)CN2C(c2nccs2)=N[C@H]1c1ccc(F)cc1Br (stereo partly drawn) [Example 46],0.1 to 0.5,0.1 to 0.5
CCOC(=O)C1=C2C[C@H](NC(=O)OC(C)C)CN2C(c2nccs2)=N[C@H]1c1ccc(F)cc1Br [Example 47],< 0.1,< 0.1
CCOC(=O)C1=C2C[C@@H](NC(C)=O)CN2C(c2nccs2)=N[C@H]1c1ccc(F)cc1Br [Example 49],0.1 to 0.5,0.1 to 0.5
CCOC(=O)C1=C2C[C@H](NC(C)=O)CN2C(c2nccs2)=N[C@H]1c1ccc(F)cc1Br [Example 50],1 to 5,1 to 5
CCOC(=O)C1=C2CC(NC(=O)NC)CN2C(c2nccs2)=N[C@H]1c1ccc(F)cc1Br (stereo partly drawn) [Example 52],0.5 to 1,0.5 to 1
CCOC(=O)C1=C2C[C@H](NC(=O)NC)CN2C(c2nccs2)=N[C@H]1c1ccc(F)cc1Br [Example 53],< 0.1,< 0.1
CCOC(=O)C1=C2C[C@@H](NS(=O)(=O)NC)CN2C(c2nccs2)=N[C@H]1c1ccc(F)cc1Br [Example 55],< 0.1,< 0.1
CCOC(=O)C1=C2C[C@H](N(C)S(=O)(=O)NC)CN2C(c2nccs2)=N[C@H]1c1ccc(F)cc1Br [Example 56],< 0.1,< 0.1
CCOC(=O)C1=C2CC(NS(C)(=O)=O)CN2C(c2nccs2)=N[C@H]1c1ccc(F)cc1Br (stereo partly drawn) [Example 58],< 0.1,< 0.1
CCOC(=O)C1=C2C[C@H](NS(C)(=O)=O)CN2C(c2nccs2)=N[C@H]1c1ccc(F)cc1Br [Example 59],< 0.1,< 0.1
CCOC(=O)C1=C2CC(NS(=O)(=O)C3CC3)CN2C(c2nccs2)=N[C@H]1c1ccc(F)cc1Br (stereo partly drawn) [Example 61],< 0.1,< 0.1
